According to patent US4956389A, “Compounds having calcium blocking activity” (priority 1982, dated 1990):
Where “and” joins values, the source holds several entries; their conditions need not be identical. Identical values can stand only once. Like-named read-outs stand apart in the source and are kept apart here.

How the values were obtained:
rats = experiment: Antagonistic effect to biochemical disturbances during the post-oligemic period in rats; type: in vivo, rat
Experimental: Oligemia in rats is caused by simultaneous bilateral occlusion of the carotid arteries associated with a slight decrease (8-9 kPa) of blood pressure and is maintained for 60 minutes. After removal of the occlusion, the post-oligemic period is followed for several days. In this case, the observation is continued up to the third day, at the time during which the brain accumulation of Ca^++ ions reaches the maximum.
The substances YS 035 or Nicardipine respectively, are administered to rats, 1, 5, 18, 24, 42 and 71 hours after having removed the carotid occlusion. The rats are sacrificed after 72 hours and the tissues are rapidly removed in order to determine their content of water, calcium and potassium.

aorta of rabbits = experiment: Antagonistic activity on the contractions produced by arachidonic acid on the aorta of rabbits, study in vitro; design: species or system rabbit; conditions: for inhibition at 1 mg/kg: dose 1.0 mg·Kg^-1
Experimental: The study has been carried out by comparison with Nicardipine using autologous blood as the perfusion liquid. The addition of 0.1 mg of arachidonate to the liquid induces an isometric contraction of the aorta which is registered by a transducer. […] This phenomenon is shown by the relaxation which follows the addition of arachidonate to the perfusion blood. This effect may be noted with 0.1 mg/kg of YS 035 and 1 mg/kg of Nicardipine.

portions of the aorta = experiment: Contraction of aorta portions by arachidonic acid after oral administration to rabbits (studies in vivo); design: species or system rabbit
Experimental: Both substances YS 035 and Nicardipine have been administered orally for a period of three consecutive days to rabbits in such a manner that the last administration of each substance was carried out one hour prior to killing the animals. The portions of the aorta had then been incubated either in PRP as well as in the Krebs-Henseleit liquid.

phosphodiesterase = experiment: Inhibition of the phosphodiesterase activity (method of K. G. Nair); type: biochemical; conditions: read-out: ID50 (inhibiting dose 50%); up to 10 mM
Experimental: The inhibition of phosphodiesterase activity of YS 035 and of papaverine has been assessed according to the method of K. G. Nair (Biochemistry, 5, 150, 1966).
It has been used a medium containing:
2.5 ml of buffer tris-HCl 0.1M pH 7.4;
50 μl CAMP "Sigma" (1 mg/ml);
5 μl Adenosin deaminase (2 mg/ml);
20 μl of alkaline phosphatase "Sigma" (2.6 mg/ml);
15 μl of phosphodiesterase (10 mg/ml).
YS 035 has been added up to a final concentration of 100 mM and Papaverine to a concentration of 10 mM.

[1] = system: isolated guinea-pig atria; conditions: papaverine with verapamil; cited from earlier work
phosphodiesterases = conditions: cited from earlier work
[2] = system: synaptosomes of the brain of rats; experiment: Inhibition of the Ca2+-uptake in synaptosomes of the brain of rats; type: biochemical, rat; conditions: 250 μM
Experimental: The synaptosomes have been prepared from an homogenate of the brain of rats by centrifugation in the gradient of Filcoll at 23,500 rpm for a period of 30 minutes and diluted to 1.5 mg/cc in the medium constituted by:
After 15 minutes of preincubation, ^45 CaCl2, final concentration 1 mM (0.2μCi/cc is added to the medium).
The first determination has been carried out two minutes after the addition. […] After each period, the reaction has been stopped by centrifugation and the radioactivity has been determined in the supernatant as well as in the pellet. The latter had been denatured previously with PCA, neutralized and subsequently centrifuged.

calcium ion flows = conditions: cited from earlier work
[3] = system: kidney cells in newborn hamsters; experiment: Inhibition of Ca2+-uptake in kidney cells in newborn hamsters; type: cell-based, hamster
Experimental: Cells of kidneys of newborn hamsters have been washed and then resuspended several times in concentration of 5·10^6 /cc in the medium of the following composition:
After 15 minutes of preincubation at 30° C., the reaction was made to begin by addition to the medium of ^45 CaCl2 1 mM (0.1μCi/cc). The concentrations at 0 period of time were the concentrations determined two minutes after the addition. The other controls were carried out after 5 minutes, 10 minutes, and 20 minutes. The determination of [Ca^2+ ] was carried out as in the preceding experiment.

[4] = system: mitochondria of liver of rats; experiment: Inhibition of Ca2+-uptake in mitochondria of liver of rats; type: biochemical, rat; conditions: 250 μM; 20° C.; control 14.3
Experimental: The mitochondria prepared according to classical methods are diluted to a concentration of 1.5 mg/cc in a medium of incubation which has the following composition:
After a period of 15 minutes of preincubation at 20° C. there was added ^45 CaCl2 (50 n mol/mg prot.).
In a manner analogous to the preceding experiments, the concentrations determined after two minutes were called the concentration at 0 period of time. The other controls were determined after 5 minutes, after 10 minutes and after 15 minutes. For the determination of Ca^2+, the experiment was carried out in a manner analogous to the preceding experiments.
The results are reported in Table 3 as the quantity of Ca transferred per mg of protein

## COC(=O)C1=C(C)NC(C)=C(C(=O)OCCN(C)Cc2ccccc2)C1c1cccc([N+](=O)[O-])c1 (centres unmarked) [Nicardipine, reference compound]
rats; 3 mg·Kg^-1 P.O. 7×, 72 h, post-oligemic controls 28.2 ± 3.22
  Cerebral concentration, Ca++: 19.3 ± 4.92 mmol·Kg^-1 of dry substance
rats; 3 mg·Kg^-1 P.O. 7×, 72 h, post-oligemic controls 80.1 ± 0.37
  Cerebral concentration, H2O: 79.2 ± 0.42%
rats; 3 mg·Kg^-1 P.O. 7×, 72 h, post-oligemic controls 366.2 ± 12.58
  Cerebral concentration, K+: 368.5 ± 19.69 mmol·Kg^-1 of dry substance
rats; rat, in vivo
  intracellular accumulation of Ca++ ions (in words): much less significant
Aorta of rabbits; N = 4
  Contraction of the first portion of the aorta: 38 ± 4.9 mm
Aorta of rabbits; Oryctolagus cuniculus, dose 0.01 mg·Kg^-1, read-out: Contraction of the second and third portion of the aorta, % Variation
  inhibition at 0.01 mg/kg: 6%
Aorta of rabbits; Oryctolagus cuniculus, dose 0.1 mg·Kg^-1, read-out: Contraction of the second and third portion of the aorta, % Variation
  inhibition at 0.1 mg/kg: 48 ± 15.5%
Aorta of rabbits; Oryctolagus cuniculus, read-out: Contraction of the second and third portion of the aorta, % Variation
  inhibition at 1 mg/kg: 162%
Aorta of rabbits; Oryctolagus cuniculus, second and third portion, read-out: % Variation, small contractions observed occasionally prior to relaxation (value in brackets)
  inhibition at 1 mg/kg: 84%
Aorta of rabbits; Oryctolagus cuniculus, autologous blood perfusion, 0.1 mg arachidonate, read-out: dose at which relaxation following the addition of arachidonate is noted
  minimal effective dose: 1 mg/kg
Aorta of rabbits; YS 035 compared with Nicardipine
  inhibitory effect on the contraction produced by the arachidonate (in words): comparable
Portions of the aorta; 1 mg·Kg^-1 P.O., Krebs, controls 12 ± 2.3
  Amplitude of contraction, medium Krebs, individual values: -30 mm and -10 mm
Portions of the aorta; 1 mg·Kg^-1 P.O., PRP, controls 30 ± 8.0
  Amplitude of contraction, PRP, individual values: +24 mm and +55 mm
Portions of the aorta; aortic endothelial level, particularly PGI2
  site of action (in words): act directly on the synthesis of prostaglandin

## COc1ccc(Cc2nccc3cc(OC)c(OC)cc23)cc1OC [Papaverine]
phosphodiesterase
  IC50: 40 µM
[1]
  interaction on the slow entry flows sustained by calcium ions (in words): mutually antagonistic
phosphodiesterases
  main biochemical action (in words): inhibition of phosphodiesterases
[2]
  inhibitory activity on the calcium uptake (in words): completely devoid of calcium antagonistic activity
[2]; 45CaCl2 1 mM, control 80 ± 7
  Ca2+-uptake: 79 ± 5 n g ions/mg prot/15 min
Calcium ion flows; at the lower concentrations
  effect on calcium ion flows (in words): stimulation of calcium ion flows
Calcium ion flows
  concentration of antagonism on the calcium ion: about 10^-4 M
Calcium ion flows; conclusion from literature
  calcium antagonistic activity (in words): totally devoid of calcium antagonistic activity

## COc1ccc(CCN(C)CCCC(C#N)(c2ccc(OC)c(OC)c2)C(C)C)cc1OC (centres unmarked) [verapamil]
[1]
  interaction on the slow entry flows sustained by calcium ions (in words): mutually antagonistic

## COC(=O)C1=C(C)NC(C)=C(C(=O)OC)C1c1ccccc1[N+](=O)[O-] [Nifedipine, reference compound]
[3]; 250 μM, 30° C., control 11.9
  Ca2+-uptake: 7.9 n g ions/mg prot/15'
[3]; Mesocricetus auratus, 0.25 h, 15 min
  percent change in Ca2+-uptake versus control at 250 µM: -33.6%
[4]
  Ca2+-uptake: 9.5 n g ions/mg prot.
